Assay results taken from patent publication US20080194482A1, “Selective Apac2 Receptor Peptide Agonists” (priority 2005, published 2008).
Read-outs that look alike come from different tables or passages of the source. Square brackets hold non-standard residues; d marks the D form. Ends that are not written are not given here. Peptide text beside a SMILES is read from it. * marks the point of attachment. hArg = N=C(N)NCCCC[C@H](N)C(=O)O; Orn = NCCC[C@H](N)C(=O)O; Hexanoyl = CCCCCC(=O)*; Aib = CC(C)(N)C(=O)O

Legend:
human VPAC2 = molecular target: T1, human VPAC2 (Homo sapiens, UniProt P41587); experiment: Alpha screen cAMP assay, in vitro potency at human VPAC2 receptor; type: cell-based; settings: cAMP generation; single result from two analyses in a single run, some values average of more than one experiment
T1 construct: expressed in transfected cells
T1 sequence (P41587 24-438): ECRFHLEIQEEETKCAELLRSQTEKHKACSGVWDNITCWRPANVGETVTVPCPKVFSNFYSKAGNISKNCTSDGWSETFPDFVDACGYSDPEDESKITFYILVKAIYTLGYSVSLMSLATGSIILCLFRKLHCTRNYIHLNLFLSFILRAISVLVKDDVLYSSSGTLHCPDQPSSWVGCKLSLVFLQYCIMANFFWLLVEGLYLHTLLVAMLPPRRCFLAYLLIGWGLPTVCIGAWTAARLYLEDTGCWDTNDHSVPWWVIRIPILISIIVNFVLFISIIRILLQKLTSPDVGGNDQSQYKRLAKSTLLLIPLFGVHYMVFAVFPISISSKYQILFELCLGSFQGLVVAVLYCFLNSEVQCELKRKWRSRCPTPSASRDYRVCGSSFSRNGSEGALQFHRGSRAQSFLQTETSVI
Method: Alpha screen: Cells are washed in the culture flask once with PBS. Then, the cells are rinsed with enzyme free dissociation buffer. The dissociated cells are removed. The cells are then spun down and washed in stimulation buffer. For each data point, 50,000 cells suspended in stimulation buffer are used. To this buffer, Alpha screen acceptor beads are added along with the stimuli. This mixture is incubated for 60 minutes. Lysis buffer and Alpha screen donor beads are added and are incubated for 60 to 120 minutes. The Alpha screen signal (indicative of intracellular cAMP levels) is read in a suitable instrument (e.g. AlphaQuest from Perkin-Elmer). Steps including Alpha screen donor and acceptor beads are performed in reduced light. The EC50 for cAMP generation is calculated from the raw signal or is based on absolute cAMP levels as determined by a standard curve performed on each plate.
Results for each agonist are, at minimum, from two analyses performed in a single run. For some agonists, the results are the mean of more than one run. The tested peptide concentrations are: 10000, 1000, 100, 10, 3, 1, 0.1, 0.01, 0.003, 0.001, 0.0001 and 0.00001 nM.

human PAC1 = molecular target: T2, human PAC1 (Homo sapiens, UniProt P41586); experiment: Filter binding assay, 125I-labeled PACAP-27 tracer, PAC1 membranes; settings: read-out: Human PAC1 Receptor Binding (IC50; nM)
T2 construct: expressed in transfected cells
T2 sequence (P41586 21-468): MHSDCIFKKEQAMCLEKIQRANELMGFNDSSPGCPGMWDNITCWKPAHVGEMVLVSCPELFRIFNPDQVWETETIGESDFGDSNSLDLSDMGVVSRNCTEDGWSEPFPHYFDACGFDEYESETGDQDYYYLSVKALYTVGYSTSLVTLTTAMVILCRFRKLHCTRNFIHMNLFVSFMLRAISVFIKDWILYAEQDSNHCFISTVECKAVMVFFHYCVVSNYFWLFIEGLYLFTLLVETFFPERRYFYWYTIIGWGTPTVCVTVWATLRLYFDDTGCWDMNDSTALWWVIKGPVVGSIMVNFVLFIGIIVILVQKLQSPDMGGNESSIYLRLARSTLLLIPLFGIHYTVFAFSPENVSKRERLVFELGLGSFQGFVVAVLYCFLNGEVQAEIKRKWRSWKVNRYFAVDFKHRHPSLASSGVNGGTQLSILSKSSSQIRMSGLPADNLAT

human VPAC1 = molecular target: T3, human VPAC1 (Homo sapiens, UniProt P32241); experiment: Filter binding assay, 125I-labeled VIP tracer, VPAC1 membranes; settings: read-out: Human VPAC1 Receptor Binding (IC50; nM)
T3 construct: expressed in transfected cells
T3 sequence (P32241 31-457): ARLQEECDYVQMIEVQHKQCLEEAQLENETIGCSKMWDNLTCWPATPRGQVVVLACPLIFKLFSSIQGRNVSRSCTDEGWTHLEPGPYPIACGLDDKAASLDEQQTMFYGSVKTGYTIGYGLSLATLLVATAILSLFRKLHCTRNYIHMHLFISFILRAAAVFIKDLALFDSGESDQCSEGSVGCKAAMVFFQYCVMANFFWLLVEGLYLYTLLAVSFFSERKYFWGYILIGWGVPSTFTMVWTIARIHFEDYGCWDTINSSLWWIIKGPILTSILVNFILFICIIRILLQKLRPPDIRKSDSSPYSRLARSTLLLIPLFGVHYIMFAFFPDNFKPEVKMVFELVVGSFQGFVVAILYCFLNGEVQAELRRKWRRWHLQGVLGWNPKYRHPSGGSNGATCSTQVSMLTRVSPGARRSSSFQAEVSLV
Method: For this assay, the solutions and equipment include:
Presoak solution: 0.5% Polyethyleneamine in Aqua dest
Buffer for flushing filter plates: 25 mM HEPES pH 7.4
Blocking buffer: 25 mM HEPES pH 7.4; 0.2% protease free BSA
Assay buffer: 25 mM HEPES pH 7.4; 0.5% protease free BSA
Dilution and assay plate: PS-Microplate, U form
Filtration Plate: Multiscreen FB Opaque Plate; 1.0 μM Type B Glasfiber filter
In order to prepare the filter plates, the presoak solution is aspirated by vacuum filtration. The plates are flushed twice with 200 μL flush buffer. 200 μL blocking buffer is added to the filter plate. The filter plate is then incubated with 200 μL presoak solution for 1 hour at room temperature.
The assay plate is filled with 25 μL assay buffer, 25 μL membranes (2.5 μg) suspended in assay buffer, 25 μL compound (agonist) in assay buffer, and 25 μL tracer (about 40000 cpm) in assay buffer. The filled plate is incubated for 1 hour with shaking.
The transfer from assay plate to filter plate is conducted. The blocking buffer is aspirated by vacuum filtration and washed two times with flush buffer. 90 μL is transferred from the assay plate to the filter plate. The 90 μL transferred from assay plate is aspirated and washed three times with 200 μL flush buffer. The plastic support is removed. It is dried for 1 hour at 60° C. 30 μL Microscint is added. The count is performed.

[1] = Rat serum stability (activity remaining, CHO-VPAC2 DiscoveRx read-out); type: in vitro ADME
Method: The rat serum is stored at 4° C. until use and is used within two weeks. […] The aliquot is stored with aprotinin at 4° C. The aliquot is stored without aprotinin at 37° C. The aliquots are incubated overnight. […] The plate(s) are washed with cells twice in incubation buffer. The plates are allowed to hold 50 μL incubation media per well for 15 minutes. 50 μL solution per well is transferred to the cells from the plate prepared with 11 serial 5× dilutions of peptide for the 4° C. and 37° C. aliquot for each peptide studied, using the maximal concentrations that are indicated by the primary screen, in duplicate. This step dilutes the peptide concentration by a factor of two. The cells are incubated at room temperature for 30 minutes. […] The cells are incubated on the shaker (300 rpm) for 1 hour. Normal procedure with the DiscoveRx kit is followed. cAMP standards are included in column 12. EC50 values are determined from the cAMP assay data.

Compound	EC50 (human VPAC2)	IC50 (human PAC1)	IC50 (human VPAC1)	Rat Serum Stability (estimated purity in % after overnight incub.) [1]	Rat Serum Stability (estimated purity in % after overnight incub.) ([1]; 10 μM peptide in rat serum, overnight at 37° C. vs 4° C. with aprotinin, estimated by EC50, 4C/EC50, 37C)
CCCCCC(=O)N[C@@H](Cc1c[nH]cn1)C(=O)N[C@@H](CO)C(=O)N[C@@H](CC(=O)O)C(=O)N[C@@H](C)C(=O)N[C@H](C(=O)N[C@@H](Cc1ccccc1)C(=O)N[C@H](C(=O)N[C@@H](CC(=O)O)C(=O)N[C@@H](CC(N)=O)C(=O)N[C@@H](Cc1ccc(O)cc1)C(=O)N[C@H](C(=O)N[C@@H](CCCN)C(=O)N[C@@H](CC(C)C)C(=O)N[C@@H](CC(C)C)C(=O)N[C@@H](C)C(=O)N[C@@H](CCCCN)C(=O)N[C@@H](CC(C)C)C(=O)N[C@@H](C)C(=O)N[C@@H](CC(C)C)C(=O)N[C@@H](CCC(N)=O)C(=O)N[C@@H](CCCCN)C(=O)N[C@@H](Cc1ccc(O)cc1)C(=O)N[C@@H](CC(C)C)C(=O)N[C@@H](CCC(N)=O)C(=O)N[C@@H](CO)C(=O)N[C@H](C(=O)N[C@@H](CCCN)C(=O)N[C@@H](CC(N)=O)C(=O)N[C@@H](CCCN)C(=O)NCC(=O)NCC(=O)N1CCC[C@H]1C(=O)N[C@@H](CO)C(=O)N[C@@H](CO)C(=O)NCC(=O)N[C@@H](C)C(=O)N1CCC[C@H]1C(=O)N1CCC[C@H]1C(=O)N1CCC[C@H]1C(=O)N[C@@H](CO)C(=O)O)[C@@H](C)CC)[C@@H](C)O)[C@@H](C)O)C(C)C [Agonist P371] (Hexanoyl-HSDAVFTDNYT[Orn]LLAKLALQKYLQSI[Orn]N[Orn]GGPSSGAPPPS-OH; C-terminus assumed)	0.13 nM	> 25000 nM			
CCCCCC(=O)N[C@@H](Cc1c[nH]cn1)C(=O)N[C@@H](CO)C(=O)N[C@@H](CC(=O)O)C(=O)N[C@@H](C)C(=O)N[C@H](C(=O)N[C@@H](Cc1ccccc1)C(=O)N[C@H](C(=O)N[C@@H](CC(=O)O)C(=O)N[C@@H](CC(N)=O)C(=O)N[C@@H](Cc1ccc(O)cc1)C(=O)N[C@H](C(=O)N[C@@H](CCCN)C(=O)N[C@@H](CC(C)C)C(=O)N[C@@H](CCCNC(=N)N)C(=O)NC(C)(C)C(=O)N[C@@H](CCC(N)=O)C(=O)N[C@H](C(=O)N[C@@H](C)C(=O)N[C@@H](C)C(=O)NC(C)(C)C(=O)N[C@@H](CCCCN)C(=O)N[C@@H](Cc1ccc(O)cc1)C(=O)N[C@@H](CC(C)C)C(=O)N[C@@H](CCC(N)=O)C(=O)N[C@@H](CO)C(=O)N[C@@H](CO)C(=O)N[C@@H](CCCN)C(=O)N[C@@H](CC(N)=O)C(=O)N[C@@H](CCCN)C(=O)NCC(=O)NCC(=O)N1CCC[C@H]1C(=O)N[C@@H](CO)C(=O)N[C@@H](CO)C(=O)NCC(=O)N[C@@H](C)C(=O)N1CCC[C@H]1C(=O)N1CCC[C@H]1C(=O)N1CCC[C@H]1C(=O)N[C@@H](CO)C(=O)O)C(C)C)[C@@H](C)O)[C@@H](C)O)C(C)C [Agonist P382] (Hexanoyl-HSDAVFTDNYT[Orn]LR[Aib]QVAA[Aib]KYLQSS[Orn]N[Orn]GGPSSGAPPPS-OH; C-terminus assumed)		> 25000 nM	> 3000 nM	92.34%	
CCCCCC(=O)N[C@@H](Cc1c[nH]cn1)C(=O)N[C@@H](CO)C(=O)N[C@@H](CC(=O)O)C(=O)N[C@@H](C)C(=O)N[C@H](C(=O)N[C@@H](Cc1ccccc1)C(=O)N[C@H](C(=O)N[C@@H](CC(=O)O)C(=O)N[C@@H](CC(N)=O)C(=O)N[C@@H](Cc1ccc(O)cc1)C(=O)N[C@H](C(=O)N[C@@H](CCCN)C(=O)N[C@@H](CC(C)C)C(=O)N[C@@H](CCCNC(=N)N)C(=O)NC(C)(C)C(=O)N[C@@H](CCC(N)=O)C(=O)N[C@H](C(=O)N[C@@H](C)C(=O)N[C@@H](CO)C(=O)NC(C)(C)C(=O)N[C@@H](CCCCN)C(=O)N[C@@H](Cc1ccc(O)cc1)C(=O)N[C@@H](CC(C)C)C(=O)N[C@@H](CCC(N)=O)C(=O)N[C@@H](CO)C(=O)N[C@H](C(=O)N[C@@H](CCCN)C(=O)N[C@@H](CC(N)=O)C(=O)N[C@@H](CCCN)C(=O)NCC(=O)NCC(=O)N1CCC[C@H]1C(=O)N[C@@H](CO)C(=O)N[C@@H](CO)C(=O)NCC(=O)N[C@@H](C)C(=O)N1CCC[C@H]1C(=O)N1CCC[C@H]1C(=O)N1CCC[C@H]1C(=O)N[C@@H](CO)C(=O)O)[C@@H](C)CC)C(C)C)[C@@H](C)O)[C@@H](C)O)C(C)C [Agonist P387] (Hexanoyl-HSDAVFTDNYT[Orn]LR[Aib]QVAS[Aib]KYLQSI[Orn]N[Orn]GGPSSGAPPPS-OH; C-terminus assumed)		> 25000 nM	> 3000 nM	74.99%	
CCCCCC(=O)N[C@@H](Cc1c[nH]cn1)C(=O)N[C@@H](CO)C(=O)N[C@@H](CC(=O)O)C(=O)N[C@@H](C)C(=O)N[C@H](C(=O)N[C@@H](Cc1ccccc1)C(=O)N[C@H](C(=O)N[C@@H](CC(=O)O)C(=O)N[C@@H](CC(N)=O)C(=O)N[C@@H](Cc1ccc(O)cc1)C(=O)N[C@H](C(=O)N[C@@H](CCCN)C(=O)N[C@@H](CO)C(=O)N[C@@H](CCCNC(=N)N)C(=O)NC(C)(C)C(=O)N[C@@H](CCC(N)=O)C(=O)N[C@H](C(=O)N[C@@H](C)C(=O)N[C@@H](C)C(=O)NC(C)(C)C(=O)N[C@@H](CCCCN)C(=O)N[C@@H](Cc1ccc(O)cc1)C(=O)N[C@@H](CC(C)C)C(=O)N[C@@H](CCC(N)=O)C(=O)N[C@@H](CO)C(=O)N[C@H](C(=O)N[C@@H](CCCN)C(=O)N[C@@H](CC(N)=O)C(=O)N[C@@H](CCCN)C(=O)NCC(=O)NCC(=O)N1CCC[C@H]1C(=O)N[C@@H](CO)C(=O)N[C@@H](CO)C(=O)NCC(=O)N[C@@H](C)C(=O)N1CCC[C@H]1C(=O)N1CCC[C@H]1C(=O)N1CCC[C@H]1C(=O)N[C@@H](CO)C(=O)O)[C@@H](C)CC)C(C)C)[C@@H](C)O)[C@@H](C)O)C(C)C [Agonist P391] (Hexanoyl-HSDAVFTDNYT[Orn]SR[Aib]QVAA[Aib]KYLQSI[Orn]N[Orn]GGPSSGAPPPS-OH; C-terminus assumed)	0.48 nM	> 25000 nM			
CCCCCC(=O)N[C@@H](Cc1c[nH]cn1)C(=O)N[C@@H](CO)C(=O)N[C@@H](CC(=O)O)C(=O)N[C@@H](C)C(=O)N[C@H](C(=O)N[C@@H](Cc1ccccc1)C(=O)N[C@H](C(=O)N[C@@H](CCC(=O)O)C(=O)N[C@@H](CCC(N)=O)C(=O)N[C@@H](Cc1ccc(OC)cc1)C(=O)N[C@H](C(=O)N[C@@H](CCCN)C(=O)N[C@@H](CC(C)C)C(=O)N[C@@H](CCCNC(=N)N)C(=O)NC(C)(C)C(=O)N[C@@H](CCC(N)=O)C(=O)N[C@@H](CC(C)C)C(=O)N[C@@H](C)C(=O)N[C@@H](C)C(=O)NC(C)(C)C(=O)N[C@@H](CCCN)C(=O)N[C@@H](Cc1ccc(OC)cc1)C(=O)N[C@@H](CC(C)C)C(=O)N[C@@H](CCC(N)=O)C(=O)N[C@@H](CO)C(=O)N[C@H](C(=O)N[C@@H](CCCN)C(=O)N[C@@H](CCCN)C(=O)NCC(=O)NCC(=O)N1CCC[C@H]1C(=O)N[C@@H](CO)C(=O)N[C@@H](CO)C(=O)NCC(=O)N[C@@H](C)C(=O)N1CCC[C@H]1C(=O)N1CCC[C@H]1C(=O)N1CCC[C@H]1C(=O)N[C@@H](CO)C(=O)O)[C@@H](C)CC)[C@@H](C)O)[C@@H](C)O)C(C)C [Agonist P418] (Hexanoyl-HSDAVFTEQY(Me)T[Orn]LR[Aib]QLAA[Aib][Orn]Y(Me)LQSI[Orn][Orn]GGPSSGAPPPS-OH; C-terminus assumed)		> 25000 nM	> 3000 nM	99.96%	
Hexanoyl-HSDAVFTDNYT[hArg]LR[Aib]QVAA[Aib]KYLQSIKNKRYGGPSSGAPPPS [Agonist P343]		> 25000 nM	> 3000 nM		34.46%
